“Also recorded” adds a separate entry of the source.
Tests used:
BCWM.1/BR cells = experiment: Annexin-V apoptosis assay, BCWM.1/BR; type: cell-based, human
Procedure: (§1) FIG. 18 is a series of representative heat density plots showing Annexin-V staining in BCWM.1 and BCWM.1/BR±b-AP15 treatment, indicating about 46% cell death in BCWM.1 cells (top panels) and about 42% cell death in BCWM.1/BR cells (bottom panels).
(§2) Apoptosis was measured using the Annexin V binding assay kit from BD Biosciences according to the manufacturer's instructions. Briefly, at the end of the treatment, cells were washed with PBS and 1×10^6 cells were re-suspended in 100 μl of binding buffer. Fluorescein isothiocycanate (FITC)-labelled Annexin V (5 μl) and propidium iodide (10μ were added to each sample and incubated in the dark for 15 minutes at room temperature. The cells were subsequently analyzed by flow cytometry using BD Accuri, the C6 flow cytometer and its software. Data from 10,000 events per sample were collected and analyzed.

[1] = system: CD19+/CD138+ WM cells from human patients; experiment: Annexin-V apoptosis assay, primary patient-derived WM cells; type: cell-based
Procedure: FIGS. 12A-12D are a series of graphs and Western blots showing b-AP15 induction of tumor-specific apoptosis in WM cell lines and primary patient-derived WM cells. FIG. 12A is a graph plotting cell death as a percentage of control cell death for all available WM cell lines (n=6, WT and BR derivatives) after treatment with the indicated concentrations of b-AP15, followed by staining with annexin-V and propidium iodide and then flow cytometry to examine apoptosis. […] Each experiment was conducted a minimum of three times with control cells (no drug treatment) showing a viability ([…] and propidium iodide-negative population) of >85%. Following treatment, the percentage of cells affected by b-AP15 was calculated by normalizing data from treated cells relative to the control (untreated) cells. […]
as §2, with “Briefly, at the end of the treatment, cells were washed with PBS and 1×10^6 cells were re-suspended in 100 μl of binding buffer.” left out

[2] = target: T1, 20S proteasome b5 subunit (Homo sapiens, UniProt P28074); experiment: Proteasomal activity assay, chymotrypsin-like (LLVY-AMC), WM cells; type: biochemical; conditions: 10 nmol/l; WT and BR WM cells
T1 construct: Cells were lysed at 4×10^6 cells/ml in proteasomal activity assay buffer; endogenous in cells; host or cells: BCWM.1, MWCL-1, RPCI-WM1 and their BR subclones (lysates)
T1 sequence (P28074 60-263): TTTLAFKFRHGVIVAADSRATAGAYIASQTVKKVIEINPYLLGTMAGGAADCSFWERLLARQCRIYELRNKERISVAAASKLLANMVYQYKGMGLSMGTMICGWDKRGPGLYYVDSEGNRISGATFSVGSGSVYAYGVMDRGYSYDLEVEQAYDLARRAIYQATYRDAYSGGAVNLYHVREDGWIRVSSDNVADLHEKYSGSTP
Procedure: FIGS. 10A and 10B are a series of graphs plotting the effect of b-AP15 treatment on 20S proteasome, b5-subunit (chymotrypsin-like) catalytic activity in WT and BR WM cells.
(§3) Cells were lysed at 4×10^6 cells/ml in proteasomal activity assay buffer [assay buffer; 25 mmol/1 HEPES buffer, pH7.5 containing 0.5 mmol/1 EDTA, 0.05% Nonidet P-40, 0.01% sodium dodecyl sulfate (SDS)] and immediately used in the assay. Enzyme reactions were performed in 96-well plates with 100 μl of final volume containing […] fluorogenic peptide substrates. The substrates used were LLVY-AMC for chymotrypsin like activity, LLE-AMC for caspase-like activity and LRR-AMC for trypsin-like activity. Reactions were incubated at 37° C. for 1 hour and fluorescence was measured at 360/460 using a BioTek synergy HT plate reader (BioTek, Winooski, Vt.).

BCWM.1 cells [3] = experiment: Annexin-V apoptosis assay, BCWM.1; type: cell-based, human
Procedure: as §1, §2

RPCI-WM1/BR = experiment: MTS viability assay, RPCI-WM1/BR; type: cell-based, human; conditions: 72-h MTS assay
Procedure: (§4) Twenty thousand cells/200 μl in quadruplicates were incubated with serially diluted b-AP15 (1-1000 nmol/l) in 96-well plates at 37° C. for 72 hours. MTS (3-(4,5-dimethylthiazol-2-yl)-5-(3-carboxymethoxyphenyl)-2-(4-sulfophenyl)-2H-tetrazolium) reagent (Molecular Probes, Eugene, Oreg.) was added at 40 μl/well and the plates were further incubated at 37° C. for 3 hours and the developed color was read at 490 nm using a BioTek synergy HT plate reader against blanks with no cells.

BCWM.1 cells [4] = experiment: Mitochondrial outer membrane permeability (TMRM), BCWM.1; type: cell-based, human
Procedure: FIG. 19 is a pair of histograms showing MOMP in representative WM models±b-AP15 treatment (BCWM.1 and BCWM.1/BR cells; one WT with its respective BR subclone). Black histogram represents control. Lines represent a shift in MOMP.
Cells were treated with different agents for 48 hours and assessed for MOMP using tetramethylrhodamine methyl ester [TMRM] (Life Technologies). TMRM was directly added to the cell cultures at 100 nmol/1 concentrations and incubated at 37° C. in the dark for 15 minutes. At the end of the incubation, cells were washed twice with cold PBS containing 2% FBS and analyzed. The cells were washed for fluorescence (FL2) and analyzed by BD Accuri, the C6 flow cytometer and its software. Data from at least 20,000 events per sample were collected and analyzed. TMRM-negative (%) cells were calculated to determine % MOMP.

BCWM.1/BR = experiment: MTS viability assay, BCWM.1/BR; type: cell-based, human; conditions: 72-h MTS assay
Procedure: FIGS. 4A-4D show the characterization of BR WM models, established by subjecting WM cancer cell lines (n=3) chronic drug exposure. […] FIG. 4C is a graph plotting relative fluorescence units in an assay to examine PSMB5 enzyme function by flow cytometry.
as §4

[5] = target: T2, proteasome b1 subunit (caspase-like activity) (Homo sapiens, UniProt P28072); experiment: Proteasomal activity assay, caspase-like (LLE-AMC), WM cells; type: biochemical; conditions: 10 nM; BCWM.1 and BCWM.1/BR shown
T2 construct: Cells were lysed at 4×10^6 cells/ml in proteasomal activity assay buffer; endogenous in cells; host or cells: BCWM.1 and BCWM.1/BR (lysates)
T2 sequence (P28072 whole entry): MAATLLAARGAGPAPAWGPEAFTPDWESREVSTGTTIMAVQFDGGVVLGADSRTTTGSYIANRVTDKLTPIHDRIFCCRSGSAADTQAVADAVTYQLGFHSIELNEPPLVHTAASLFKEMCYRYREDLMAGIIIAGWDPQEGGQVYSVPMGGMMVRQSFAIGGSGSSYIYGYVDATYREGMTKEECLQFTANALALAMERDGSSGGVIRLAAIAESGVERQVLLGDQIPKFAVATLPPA
Procedure: FIGS. 17A-17D are a series of graphs plotting the effects of bortezomib (10 nM), carfilzomib (10 nM) and b-AP15 (10 nM) on caspase-like and trypsin-like proteasomal activities, as assessed in three WT and three BR WM cell lines in vitro using the fluorogenic substrates LLE-AMC (caspase-like activity) and LRR-AMC (trypsin-like activity). Reactions were incubated at 37° C. for 1 hour and the fluorescence was measured at 360/460 and expressed as relative fluorescence units (RFU), using BioTek synergy HT plate reader. Data from two representative cell lines (BCWM.1 and its BR subclone) are shown.
as §3

C=CC(=O)N1C/C(=C\c2ccc([N+](=O)[O-])cc2)C(=O)/C(=C/c2ccc([N+](=O)[O-])cc2)C1 [b-AP15]
cell death (Annexin-V staining) (BCWM.1/BR cells): about 42% | apoptosis (annexin-V positivity) ([1]; 0.5 μmol/l, 12 hours): Significant annexin-V positivity; also recorded: Robust apoptotic cell death | cells undergoing total loss of viability ([1]; 1 μmol/l): > 90% | chymotrypsin-like activity (LLVY) of the b5 subunit [2]: did not alter chymotryptic activity; also recorded: no loss of the chymotrypsin-like activity | cell death (Annexin-V staining) (BCWM.1 cells [3]): about 46% | IC50 (RPCI-WM1/BR): 57 nM | increase in MOMP (BCWM.1 cells [4]): 57% | IC50 (BCWM.1/BR): 16 nM | caspase-like proteasomal activity [5]: no change in caspase-like activity

From patent US20170128518A1, “METHODS AND MATERIALS FOR IDENTIFYING AND TREATING MAMMALS RESISTANT TO PROTEASOME INHIBITOR TREATMENTS” (Mayo Foundation for Medical Education and Research, priority 2014, published 2017)
